Experimental data published in ChEMBL document CHEMBL2417453, “Anti-inflammatory asterosaponins from the starfish Astropecten monacanthus” (J Nat Prod, 2013).
pIC50: −log10 of the molar value.

How the values were obtained:
Assay type in all cases: functional, cell-based
Settings in all cases: C57BL/6, BMDC
[1] = Antiinflammatory activity in C57BL/6 mouse BMDC cells assessed as inhibition of LPS-induced IL-12 p40 production preincubated for 1 hr prior to LPS-stimulation measured after 18 hrs by ELISA
[2] = Antiinflammatory activity in C57BL/6 mouse BMDC cells assessed as inhibition of LPS-induced IL-6 production preincubated for 1 hr prior to LPS-stimulation measured after 18 hrs by ELISA
[3] = Antiinflammatory activity in C57BL/6 mouse BMDC cells assessed as inhibition of LPS-induced TNFalpha production preincubated for 1 hr prior to LPS-stimulation measured after 18 hrs by ELISA

Row | Structure (SMILES) | pIC50 [1] | pIC50 [2] | pIC50 [3]
1 | C/C(=C\C(=O)CC(C)C)[C@H]1CC[C@H]2[C@@H]3C[C@H](O[C@@H]4O[C@H](C)[C@@H](O)[C@H](O[C@@H]5OC[C@@H](O[C@@H]6O[C@H](CO)[C@H](O)[C@H](O)[C@H]6O[C@@H]6O[C@H](C)[C@H](O)[C@H](O[C@@H]7O[C@@H](CO)[C@H](O)[C@H]7O)[C@H]6O)[C@H](O)[C@H]5O[C@@H]5O[C@H](C)[C@@H](O)[C@H](O)[C@H]5O)[C@H]4O)[C@H]4C[C@@H](OS(=O)(=O)O)CC[C@]4(C)C3=CC[C@]12C | < 4.30 | 5.50 | < 4.30
2 | CC(C)C[C@H](O)C[C@](C)(O)[C@H]1CC[C@H]2[C@@H]3C[C@H](O[C@@H]4O[C@H](C)[C@@H](O)[C@H](O[C@@H]5OC[C@@H](O[C@@H]6O[C@H](CO)[C@H](O)[C@H](O)[C@H]6O[C@@H]6O[C@H](C)[C@H](O)[C@H](O[C@@H]7O[C@@H](CO)[C@H](O)[C@H]7O)[C@H]6O)[C@H](O)[C@H]5O[C@@H]5O[C@H](C)[C@@H](O)[C@H](O)[C@H]5O)[C@H]4O)[C@H]4C[C@@H](OS(=O)(=O)O)CC[C@]4(C)C3=CC[C@@]21C | < 4.30 | < 4.30 | < 4.30
3 | CC(=O)[C@H]1CC[C@H]2[C@@H]3C[C@H](O[C@@H]4O[C@H](C)[C@@H](O)[C@H](O[C@@H]5OC[C@@H](O[C@@H]6O[C@H](CO)[C@H](O)[C@H](O)[C@H]6O[C@@H]6O[C@H](C)[C@H](O)[C@H](O[C@@H]7O[C@@H](CO)[C@H](O)[C@H]7O)[C@H]6O)[C@H](O)[C@H]5O[C@@H]5O[C@H](C)[C@@H](O)[C@H](O)[C@H]5O)[C@H]4O)[C@H]4C[C@@H](OS(=O)(=O)O)CC[C@]4(C)C3=CC[C@]12C | < 4.30 | 4.52 | < 4.30
4 | CC(=O)CC(=O)C[C@@](C)(O)[C@H]1CC[C@H]2[C@@H]3C[C@H](O[C@@H]4O[C@H](CO)[C@@H](O)[C@H](O[C@@H]5O[C@H](C)[C@@H](O[C@@H]6O[C@H](C)[C@H](O)[C@H](O)[C@H]6O[C@@H]6O[C@H](C)[C@H](O)[C@H](O)[C@H]6O)[C@H](O)[C@H]5O[C@@H]5O[C@H](C)[C@@H](O)[C@H](O)[C@H]5O)[C@H]4O)[C@H]4C[C@@H](OS(=O)(=O)O)CC[C@]4(C)C3=CC[C@@]21C | 6.22 | 5.45 | 5.92
5 | CC(C)=CC(=O)C[C@@H](C)[C@H]1CC[C@H]2[C@@H]3C[C@H](O[C@@H]4O[C@H](CO)[C@@H](O)[C@H](O[C@@H]5O[C@H](C)[C@@H](O[C@@H]6O[C@H](C)[C@H](O)[C@H](O)[C@H]6O[C@@H]6O[C@H](C)[C@H](O)[C@H](O)[C@H]6O)[C@H](O)[C@H]5O[C@@H]5O[C@H](C)[C@@H](O)[C@H](O)[C@H]5O)[C@H]4O)[C@H]4C[C@@H](OS(=O)(=O)O)CC[C@]4(C)C3=CC[C@]12C | < 4.30 | 5.36 | < 4.30
6 | CC(C)CC(=O)C[C@](C)(O)[C@H]1CC[C@H]2[C@@H]3C[C@H](O[C@@H]4O[C@H](C)[C@@H](O)[C@H](O[C@@H]5OC[C@@H](O[C@@H]6O[C@H](CO)[C@H](O)[C@H](O)[C@H]6O[C@@H]6O[C@H](C)[C@H](O)[C@H](O[C@@H]7O[C@@H](CO)[C@H](O)[C@H]7O)[C@H]6O)[C@H](O)[C@H]5O[C@@H]5O[C@H](C)[C@@H](O)[C@H](O)[C@H]5O)[C@H]4O)[C@H]4C[C@@H](OS(=O)(=O)O)CC[C@]4(C)C3=CC[C@@]21C [PSILASTEROSIDE] | < 4.30 | < 4.30 | < 4.30
7 | C[S+]([O-])c1ccc(-c2nc(-c3ccc(F)cc3)c(-c3ccncc3)[nH]2)cc1 (stereo unspecified) [SB-203580] | 5.30 | 5.46 | 5.12
